Experiments:
mice [1] = test: analgesic activity in chemical and thermal models of pain (acetic acid, formalin, capsaicin); type: in vivo
rat paw edema = test: anti-inflammatory activity, carrageenan rat paw edema; type: in vivo; details: croton oil and arachidonic acid models
mice [2] = test: hot plate test pain model; type: in vivo; details: hot plate 49-54° C.
[3] = barbiturate sleep (sodium pentobarbital); type: in vivo; details: sodium pentobarbital (nembutal)
Artemia salina = test: in vitro cytotoxicity test on Artemia salina
Experimental: In the in vitro cytotoxicity tests, zerumbone produced mortality for Artemia salina of CL50—45 ug/ml, showing a positive correlation between antitumor and anti-inflammatory activities.

## C/C1=C\CC(C)(C)/C=C/C(=O)/C(C)=C/CC1 [zerumbone]
Mice [1]; administered orally and intraperitoneally
  analgesic activity against pain models acetic acid, formalin and capsaicin: significant, dose-dependent analgesic activity
Mice [1]; doses of 250 to 1000 mg/kg, mice
  analgesic effect in chemical and thermal models of pain: potent analgesic effect
Rat paw edema
  anti-inflammatory effect, inhibition of carrageenan inflammatory response in rat paw edema: significant and dose-dependent anti-inflammatory effects
Mice [2]
  latency of the animals in the hot plate test: significantly increased
[3]
  barbiturate sleep recovery time (T.R): approximately 600 minutes
Artemia salina
  CL50 mortality for Artemia salina: 45 µg/mL
